Key:
CD45+ cells = test: Cell viability in apheresis product by flow cytometry (CD45-PerCP and 7-AAD; % CD45+ cells); type: cell-based; conditions: FIG. 7 lower panel; 14 mM Citrate, overnight; A23187 at 4 micromolar in DMEM media
Protocol: Cell viability may be determined by flow cytometry using CD45-PerCP and 7-AAD.
FIG. 7: An apheresis product is collected into 14 mM Citrate (ACD-A). […] The calcium ionophore A23187 is used at 4 micromolar in apheresis material resuspended in DMEM media. […] Determination of singlets and aggregates may be done by flow cytometry using side and forward scatter of the CD45+ cell population. Cell viability is determined as the % CD45+ cells.

CD45+ cell population = test: Singlets and aggregates in apheresis product by flow cytometry (side and forward scatter); type: cell-based; conditions: FIG. 7 top panel; 14 mM Citrate (ACD-A), overnight, low/medium/high concentrations, compared to control with no inhibitors
cultured cells = conditions: at micromolar concentrations; cited from earlier work
neutrophils = conditions: cited from earlier work
granulocytes = conditions: incubation; cited from earlier work
cell aggregates = test: Cell aggregates in apheresis product after 24 h, glass slide under microscope; type: cell-based; conditions: FIG. 10, 14 mM Citrate, GSK484 10 micromolar, DTPA 10 micromolar, Tirofiban 2.5 micrograms/ml
Protocol: FIG. 9: An apheresis product is collected in 14 mM Citrate and divided into two different tubes—one with no further addition and a second tube with additional citrate for a final concentration of 28 mM (2X ACD-A). The tubes are left overnight at room temperature under rotation. After 24 h, aliquots of the tubes are spotted on a glass slide and are analyzed under the microscope for the presence of cell aggregates.
FIG. 10: An apheresis product is collected in 14 mM Citrate (ACD-A) and aliquots are taken and incubated with the different inhibitors, or in combination, in different tubes for 24 h. The tubes are left under rotation at room temperature. After 24 h, aliquots of the different tubes are spotted on a glass slide and are analyzed under a microscope for the presence of cell aggregates.

CNc1ccc2oc(C[C@H]3O[C@@]4(CC[C@H]3C)O[C@H]([C@H](C)C(=O)c3ccc[nH]3)[C@H](C)C[C@H]4C)nc2c1C(=O)O [A23187]
viability (% CD45+ cells) (CD45+ cells): affect viability

O=C(O)CN(CCN(CC(=O)O)CC(=O)O)CCN(CC(=O)O)CC(=O)O [DTPA, diethylenetriaminepentacetic acid]
aggregation (singlets %) (CD45+ cell population): very effective at all concentrations tested
apoptosis and cell death (cultured cells): induce apoptosis and cell death

CCCCC(CC)CNC(=N)NC(=N)NCCCCCCNC(=N)NC(=N)NCC(CC)CCCC (stereo not drawn) [Alexidine]
NETosis after 2 h of incubation (neutrophils; after 2 h of incubation): induces NETosis
NET formation induced by ionomycin (neutrophils; in neutrophils): inhibits NET formation
basal level of netosis (neutrophils; without an increase of cytosolic calcium): inhibits the basal level of netosis

C[C@@H](N)[C@H]1CC[C@H](C(=O)Nc2ccncc2)CC1 [Y-27632]
NET formation induced by PMA and other challenges (neutrophils; pre-treatment): inhibits NET formation
chemotaxis of granulocytes (granulocytes): blocked the chemotaxis

CCCCS(=O)(=O)N[C@@H](Cc1ccc(OCCCCC2CCNCC2)cc1)C(=O)O [Tirofiban, tirofiban]
formation of cell aggregates (cell aggregates): prevents the formation of cell aggregates

S=C=Nc1cccc(NC(=S)NCCCCNC(=S)Nc2cccc(N=C=S)c2)c1 [MRS2578]
aggregation (singlets %) (CD45+ cell population): inhibit aggregation in a dose dependent manner

COc1cc(C(=O)N2CC[C@@H](O)[C@@H](N)C2)cc2nc(-c3cc4ccccc4n3CC3CC3)n(C)c12 [GSK484]
aggregation (singlets %) (CD45+ cell population): inhibit aggregation in a dose dependent manner

c1ccc(CN(CCN(Cc2ccccn2)Cc2ccccn2)Cc2ccccn2)nc1 [TPEN, N,N,N′, N′-tetrakis(2-pyridylmethyl)ethylenediamine]
apoptosis and cell death (cultured cells): induce apoptosis and cell death

— patent publication US20230058634A1, “PREVENTION OF PLATELET ACTIVATION AND CELL DIFFERENTIATION DURING THE PROCESSING OF BLOOD AND BLOOD-RELATED COMPOSITIONS” (GPB Scientific, Inc., priority 2020, published 2023)
